Consider `CC(=O)O[C@@H]1O[C@H](CSC2=CC(=O)c3c(O)c(C)c(C)c(O)c3C2=O)[C@@H](OC(C)=O)[C@H](OC(C)=O)[C@H]1OC(C)=O` [SAB-1, 2-(1,2,3,4-Tetra-O-acetyl-6-deoxy-β-D-glucopyranos-6-ylthio)-5,8-dihydroxy-6,7-dimethyl-1,4-naphthoquinone], for which the melting point lay in the range of 203 to 205 °C. Under `CC(=O)O[C@@H]1O[C@H](CSc2c(C)c(O)c3c(c2O)C(=O)C(O)=C(O)C3=O)[C@@H](OC(C)=O)[C@H](OC(C)=O)[C@H]1OC(C)=O` [SAB-3, 6-(1,2,3,4-Tetra-O-acetyl-6-deoxy-β-D-glucopyranos-6-ylthio)-2,3,5,8-tetrahydroxy-7-methyl-1,4-naphthoquinone] stands 207 to 211 °C; under `COc1c(O)c2c(c(O)c1SC[C@H]1O[C@@H](OC(C)=O)[C@H](OC(C)=O)[C@@H](OC(C)=O)[C@@H]1OC(C)=O)C(=O)C(O)=CC2=O` [SAB-5, 7-(1,2,3,4-Tetra-O-acetyl-6-deoxy-β-D-glucopyranos-6-ylthio)-2,5,8-trihydroxy-6-methoxy-1,4-naphthoquinone], 109 to 112 °C; under `CC(=O)O[C@@H]1O[C@H](CSC2=C(C)C(=O)c3c(O)cccc3C2=O)[C@@H](OC(C)=O)[C@H](OC(C)=O)[C@H]1OC(C)=O` [SAB-7, 2-(1,2,3,4-Tetra-O-acetyl-6-deoxy-β-D-glucopyranos-6-ylthio)-5-hydroxy-3-methyl-1,4-naphthoquinone], 160 to 161 °C. The compound `CC(=O)O[C@@H]1O[C@H](CSC2=C(SC[C@H]3O[C@@H](OC(C)=O)[C@H](OC(C)=O)[C@@H](OC(C)=O)[C@@H]3OC(C)=O)C(=O)c3c(O)c(C)c(C)c(O)c3C2=O)[C@@H](OC(C)=O)[C@H](OC(C)=O)[C@H]1OC(C)=O` [SAB-9, 2,3-Di(1,2,3,4-tetra-O-acetyl-6-deoxy-β-D-glucopyranos-6-ylthio)-5,8-dihydroxy-6,7-dimethyl-1,4-naphthoquinone] had a melting point of 202 to 205 °C. The same measure for `CCC1=C(O)C(=O)c2c(O)c(SC[C@H]3O[C@@H](OC(C)=O)[C@H](OC(C)=O)[C@@H](OC(C)=O)[C@@H]3OC(C)=O)c(OC)c(O)c2C1=O` [SAB-11, 7-(1,2,3,4-Tetra-O-acetyl-6-deoxy-β-D-glucopyranos-6-ylthio)-3-ethyl-2,5,8-trihydroxy-6-methoxy-1,4-naphthoquinone]: 167 to 171 °C. Under `CC(=O)O[C@@H]1O[C@H](CSc2c(C)c(O)c3c(c2O)C(=O)C(C)=C(C)C3=O)[C@@H](OC(C)=O)[C@H](OC(C)=O)[C@H]1OC(C)=O` [SAB-15, 6-(1,2,3,4-Tetra-O-acetyl-6-deoxy-β-D-glucopyranos-6-ylthio)-5,8-dihydroxy-2,3,7-trimethyl-1,4-naphthoquinone] stands 148 to 151 °C; under `CCc1c(O)c2c(c(O)c1SC[C@H]1O[C@@H](OC(C)=O)[C@H](OC(C)=O)[C@@H](OC(C)=O)[C@@H]1OC(C)=O)C(=O)C(C)=C(C)C2=O` [SAB-17, 6-(1,2,3,4-Tetra-O-acetyl-6-deoxy-β-D-glucopyranos-6-ylthio)-7-ethyl-5,8-dihydroxy-2,3-dimethyl-1,4-naphthoquinone], 179 to 182 °C; under `CC(=O)O[C@@H]1O[C@H](CSC2=C(Cl)C(=O)c3c(O)c(Cl)c(Cl)c(O)c3C2=O)[C@@H](OC(C)=O)[C@H](OC(C)=O)[C@H]1OC(C)=O` [SAB-19, 2-(1,2,3,4-Tetra-O-acetyl-6-deoxy-β-D-glucopyranos-6-ylthio)-3,6,7-trichloro-5,8-dihydroxy-1,4-naphthoquinone], 156 to 159 °C. `CC(=O)O[C@@H]1O[C@H](CSC2=CC(=O)c3c(O)ccc(O)c3C2=O)[C@@H](OC(C)=O)[C@H](OC(C)=O)[C@H]1OC(C)=O` [SAB-21, 2-(1,2,3,4-Tetra-O-acetyl-6-deoxy-β-D-glucopyranos-6-ylthio)-5,8-dihydroxy-1,4-naphthoquinone] had a melting point of 207 to 210 °C.

Usually melting point stands for the temperature of the solid-liquid transition.

The values are drawn from paper PMC7281150, “Inspired by Sea Urchins: Warburg Effect Mediated Selectivity of Novel Synthetic Non-Glycoside 1,4-Naphthoquinone-6S-Glucose Conjugates in Prostate Cancer” (Marine Drugs, 2020).
